{"source": "patent US8236750B2", "about": "“Composition comprising a pulmonary surfactant and a TNF-derived peptide” (Nycomed GmbH, priority 2004, dated 2012)", "test_system": "Male Wistar rats", "assay": "Arterial blood oxygenation after repeated saline lung lavage in rats", "type": "in vivo, rat", "conditions": "TIP 500 μg/animal alone, intratracheally, 1.2 mL in NaCl 0.9%; lung-lavaged rats; up to 150 min after administration", "method": "Male Wistar rats were prepared as disclosed in Example 5. NaCl 0.9% (open circles), LUSUPULTIDE 12.5 mgPL/kg (filled squares), the circularized peptide […] (SEQ ID NO:3) (=TIP) 500 μg/animal (stars), or LUSUPULTIDE 12.5 mgPL/kg in combination with TIP 500 μg/animal (open squares) was administered intratracheally (administration volume 1.2 mL, solvent NaCl 0.9%). Arterial blood oxygenation (PaO2) was determined every 30 min up to 150 min after drug administration (t=210 min). […] Data are shown as mean ±SEM.*p<0.05, **p<0.01 versus LUSUPULTIDE 12.5 mgPL/kg\nMale Wistar rats (230-280 g) were anaesthetized, catheterized to withdraw arterial blood, and ventilated with pure oxygen (=>PaO2˜500-550 mmHg). 30 min later lungs were ravaged 5-9 times with NaCl 0.9% (=>PaO2˜50-100 mmHg). After 60 min NaCl 0.9%, LUSUPULTIDE 12.5 mgPL/kg, TIP (500 μg/animal), or LUSUPULTIDE (12.5 mgPL/kg) in combination with TIP (500 μg/animal) was administered intratracheally (administration volume 1.2 mL, solvent NaCl 0.9%). Arterial blood oxygenation (PaO2) was determined every 30 min up to 150 min after drug administration (t=210 min).", "data": [{"sequence": "CGQRETPEGAEAKPWYC [TIP]", "values": [{"measurement": "Influence on arterial blood oxygenation (PaO2)", "value": "no influence on oxygenation"}]}]}
